Assay results: ChEMBL document CHEMBL4334506, “Xylodon flaviporus-Derived Drimane Sesquiterpenoids That Inhibit Osteoclast Differentiation” (J Nat Prod, 2019)
pIC50: −log10 of the molar value.

Columns and labels:
BMDM [1] = experiment: Inhibition of M-CSF/RANKL-induced osteoclast differentiation in C57BL/6 mouse bone marrow macrophage after 4 days by TRAP-staining based microscopic analysis; assay type: functional, cell-based
BMDM [2] = experiment: Cytotoxicity against M-CSF stimulated C57BL/6 mouse bone marrow macrophage cells at 1 to 10 uM after 4 days by XTT assay; assay type: cell-based; details: 96 h
[3] = Inhibition of M-CSF/RANKL-induced osteoclast differentiation in C57BL/6 mouse bone marrow macrophage assessed as reduction in multinucleated TRAP+ cells after 4 days by TRAP-staining based microscopic analysis; assay type: functional, cell-based; details: C57BL/6, BMDM, 96 h
BMDM [4] = experiment: Cytotoxicity against M-CSF stimulated C57BL/6 mouse bone marrow macrophage cells at 3 to 30 uM after 4 days by XTT assay; assay type: cell-based; details: 96 h

Row | Structure (SMILES) | inhibition (BMDM [1]) | Activity (BMDM [2]) | pIC50 [3] | Activity (BMDM [4])
1 | CO[C@@H]1OC(=O)C2=C[C@H](OC(=O)/C=C/c3ccccc3)[C@H]3C(C)(C)CCC[C@]3(C)[C@H]21 | Dose-dependent effect | Non-Toxic | 5.00 | –
2 | CC1(C)CCC[C@]2(C)C3=C(COC3=O)C[C@H](OC(=O)/C=C/c3ccccc3)[C@@H]12 | Dose-dependent effect | Non-Toxic | 5.80 | –
3 | CC1(C)CCC[C@]2(C)[C@H](O)C(C=O)=C[C@H](OC(=O)/C=C/c3ccccc3)[C@@H]12 | Dose-dependent effect | Non-Toxic | 5.07 | –
4 | CC1(C)CCC[C@]2(C)[C@@H]3C(=C[C@H](OC(=O)/C=C/c4ccccc4)[C@@H]12)CO[C@H]3O | Dose-dependent effect | – | 4.97 | Non-Toxic
5 | CC1(C)CCC[C@]2(C)[C@@H]3C(=C[C@H](OC(=O)/C=C/c4ccc(O)cc4)[C@@H]12)CO[C@H]3O | Dose-dependent effect | Non-Toxic | 5.68 | –
6 | CC1(C)CCC[C@]2(C)C3=C(COC3=O)C[C@H](OC(=O)/C=C/c3ccc(O)cc3)[C@@H]12 | Dose-dependent effect | Non-Toxic | 6.05 | –
